# Assay results published in PubChem BioAssay (NCI).
#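 Cells were grown in 96-well plates and exposed to each compound for 48 hours at five concentrations; endpoints were interpolated linearly between bracketing concentrations, or set to the highest concentration if not reached. At the TGI there is no net growth.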
# Tests used:
# Assay in all cases: DTP human tumour cell line panel, 48 h
# OVCAR-8 ovarian = test system: OVCAR-8 ovarian
# IGROV1 ovarian = test system: IGROV1 ovarian
# BT-549 breast = test system: BT-549 breast
# DU-145 prostate = test system: DU-145 prostate
# UO-31 renal = test system: UO-31 renal
# EKVX NSCLC = test system: EKVX NSCLC
# ACHN renal = test system: ACHN renal
# SR leukemia = test system: SR leukemia
# SN12C renal = test system: SN12C renal
# SK-OV-3 ovarian = test system: SK-OV-3 ovarian
# MCF7 breast = test system: MCF7 breast
# OVCAR-5 ovarian = test system: OVCAR-5 ovarian
# A498 renal = test system: A498 renal
# SF-268 CNS = test system: SF-268 CNS
# HCT-15 colon = test system: HCT-15 colon
# SK-MEL-28 melanoma = test system: SK-MEL-28 melanoma
# MOLT-4 leukemia = test system: MOLT-4 leukemia
# TK-10 renal = test system: TK-10 renal
# SW-620 colon = test system: SW-620 colon
# U251 CNS = test system: U251 CNS
# NCI-H226 lung = test system: NCI-H226 lung
# NCI-H23 lung = test system: NCI-H23 lung
# K-562 leukemia = test system: K-562 leukemia
# HT29 colon = test system: HT29 colon
# 786-0 renal = test system: 786-0 renal
# CAKI-1 renal = test system: CAKI-1 renal
# MDA-N = test system: MDA-N
# HCC-2998 colon = test system: HCC-2998 colon
# UACC-257 melanoma = test system: UACC-257 melanoma
# HL-60(TB) leukemia = test system: HL-60(TB) leukemia
# OVCAR-4 ovarian = test system: OVCAR-4 ovarian
# HOP-92 NSCLC = test system: HOP-92 NSCLC
# A549 NSCLC = test system: A549 NSCLC
# PC-3 prostate = test system: PC-3 prostate
# T-47D breast = test system: T-47D breast
# LOX IMVI melanoma = test system: LOX IMVI melanoma
# MALME-3M melanoma = test system: MALME-3M melanoma
# SNB-19 CNS = test system: SNB-19 CNS
# OVCAR-3 ovarian = test system: OVCAR-3 ovarian
# NCI/ADR-RES ovarian = test system: NCI/ADR-RES ovarian
# RPMI-8226 leukemia = test system: RPMI-8226 leukemia
# RXF 393 renal = test system: RXF 393 renal
# MDA-MB-231 breast = test system: MDA-MB-231 breast
# HS 578T breast = test system: HS 578T breast
# SK-MEL-5 melanoma = test system: SK-MEL-5 melanoma
# HOP-62 NSCLC = test system: HOP-62 NSCLC
# SK-MEL-2 melanoma = test system: SK-MEL-2 melanoma
# UACC-62 melanoma = test system: UACC-62 melanoma
# NCI-H522 lung = test system: NCI-H522 lung
# KM12 colon = test system: KM12 colon
# MDA-MB-435 = test system: MDA-MB-435
# SNB-75 CNS = test system: SNB-75 CNS
# M14 melanoma = test system: M14 melanoma
# HCT-116 colon = test system: HCT-116 colon
# NCI-H460 lung = test system: NCI-H460 lung
# SF-539 CNS = test system: SF-539 CNS
# SF-295 CNS = test system: SF-295 CNS
# COLO 205 colon = test system: COLO 205 colon
# CCRF-CEM leukemia = test system: CCRF-CEM leukemia
structure (smiles),measurement,setting,value
O=C(O)C1CC=CCC1C(=O)Nc1cccc(O)c1 (stereo unspecified),TGI,OVCAR-8 ovarian,> 100 µM
same,TGI,IGROV1 ovarian,> 100 µM
same,TGI,BT-549 breast,> 100 µM
same,TGI,DU-145 prostate,> 100 µM
same,TGI,UO-31 renal,> 100 µM
same,TGI,EKVX NSCLC,> 100 µM
same,TGI,ACHN renal,> 100 µM
same,TGI,SR leukemia,> 100 µM
same,TGI,SN12C renal,> 100 µM
same,TGI,SK-OV-3 ovarian,> 100 µM
same,TGI,MCF7 breast,> 100 µM
same,TGI,OVCAR-5 ovarian,> 100 µM
same,TGI,A498 renal,> 100 µM
same,TGI,SF-268 CNS,> 100 µM
same,TGI,HCT-15 colon,> 100 µM
same,TGI,SK-MEL-28 melanoma,> 100 µM
same,TGI,MOLT-4 leukemia,> 100 µM
same,TGI,TK-10 renal,> 100 µM
same,TGI,SW-620 colon,> 100 µM
same,TGI,U251 CNS,> 100 µM
same,TGI,NCI-H226 lung,> 100 µM
same,TGI,NCI-H23 lung,> 100 µM
same,TGI,K-562 leukemia,> 100 µM
same,TGI,HT29 colon,> 100 µM
same,TGI,786-0 renal,> 100 µM
same,TGI,CAKI-1 renal,> 100 µM
same,TGI,MDA-N,> 100 µM
same,TGI,HCC-2998 colon,> 100 µM
same,TGI,UACC-257 melanoma,> 100 µM
same,TGI,HL-60(TB) leukemia,> 100 µM
same,TGI,OVCAR-4 ovarian,> 100 µM
same,TGI,HOP-92 NSCLC,> 100 µM
same,TGI,A549 NSCLC,> 100 µM
same,TGI,PC-3 prostate,> 100 µM
same,TGI,T-47D breast,> 100 µM
same,TGI,LOX IMVI melanoma,> 100 µM
same,TGI,MALME-3M melanoma,> 100 µM
same,TGI,SNB-19 CNS,> 100 µM
same,TGI,OVCAR-3 ovarian,> 100 µM
same,TGI,NCI/ADR-RES ovarian,> 100 µM
same,TGI,RPMI-8226 leukemia,> 100 µM
same,TGI,RXF 393 renal,> 100 µM
same,TGI,MDA-MB-231 breast,> 100 µM
same,TGI,HS 578T breast,> 100 µM
same,TGI,SK-MEL-5 melanoma,> 100 µM
same,TGI,HOP-62 NSCLC,> 100 µM
same,TGI,SK-MEL-2 melanoma,> 100 µM
same,TGI,UACC-62 melanoma,> 100 µM
same,TGI,NCI-H522 lung,> 100 µM
same,TGI,KM12 colon,> 100 µM
same,TGI,MDA-MB-435,> 100 µM
same,TGI,SNB-75 CNS,> 100 µM
same,TGI,M14 melanoma,> 100 µM
same,TGI,HCT-116 colon,> 100 µM
same,TGI,NCI-H460 lung,> 100 µM
same,TGI,SF-539 CNS,> 100 µM
same,TGI,SF-295 CNS,> 100 µM
same,TGI,COLO 205 colon,> 100 µM
O=C1c2c(Br)sc(Br)c2[C@@H](Cl)[C@H]1Cl,TGI,OVCAR-8 ovarian,42.5 µM
same,TGI,IGROV1 ovarian,42 µM
same,TGI,BT-549 breast,39.3 µM
same,TGI,DU-145 prostate,35.9 µM
same,TGI,UO-31 renal,40.4 µM
same,TGI,EKVX NSCLC,46.6 µM
same,TGI,ACHN renal,37.4 µM
same,TGI,SR leukemia,9.14 µM
same,TGI,SN12C renal,36.7 µM
same,TGI,SK-OV-3 ovarian,36.3 µM
same,TGI,MCF7 breast,53.5 µM
same,TGI,OVCAR-5 ovarian,43 µM
same,TGI,A498 renal,> 100 µM
same,TGI,SF-268 CNS,39.8 µM
same,TGI,HCT-15 colon,71.3 µM
same,TGI,SK-MEL-28 melanoma,59.3 µM
same,TGI,MOLT-4 leukemia,> 100 µM
same,TGI,TK-10 renal,87.3 µM
same,TGI,SW-620 colon,> 100 µM
same,TGI,U251 CNS,34.8 µM
same,TGI,NCI-H226 lung,36.4 µM
same,TGI,NCI-H23 lung,94 µM
same,TGI,K-562 leukemia,> 100 µM
same,TGI,HT29 colon,> 100 µM
same,TGI,786-0 renal,52.5 µM
same,TGI,CAKI-1 renal,38.8 µM
same,TGI,MDA-N,40.3 µM
same,TGI,UACC-257 melanoma,30.9 µM
same,TGI,CCRF-CEM leukemia,35.9 µM
same,TGI,HL-60(TB) leukemia,20.5 µM
same,TGI,OVCAR-4 ovarian,37.4 µM
same,TGI,HOP-92 NSCLC,42.5 µM
same,TGI,A549 NSCLC,79.7 µM
same,TGI,PC-3 prostate,38.9 µM
same,TGI,T-47D breast,44.8 µM
same,TGI,LOX IMVI melanoma,51 µM
same,TGI,MALME-3M melanoma,82.7 µM
same,TGI,SNB-19 CNS,38.5 µM
same,TGI,OVCAR-3 ovarian,30 µM
same,TGI,NCI/ADR-RES ovarian,> 100 µM
same,TGI,RPMI-8226 leukemia,54.6 µM
same,TGI,RXF 393 renal,30.7 µM
same,TGI,MDA-MB-231 breast,36.8 µM
same,TGI,HS 578T breast,> 100 µM
same,TGI,SK-MEL-5 melanoma,31.1 µM
same,TGI,HOP-62 NSCLC,35.5 µM
same,TGI,SK-MEL-2 melanoma,37.7 µM
same,TGI,UACC-62 melanoma,34.6 µM
same,TGI,NCI-H522 lung,10.9 µM
same,TGI,KM12 colon,65.4 µM
same,TGI,MDA-MB-435,43.8 µM
same,TGI,SNB-75 CNS,34.1 µM
same,TGI,M14 melanoma,39.1 µM
same,TGI,HCT-116 colon,48.8 µM
same,TGI,NCI-H460 lung,40.9 µM
same,TGI,SF-539 CNS,27.1 µM
same,TGI,SF-295 CNS,40.7 µM
same,TGI,COLO 205 colon,31.8 µM
